Test results from the supplement of paper PMC10307832.

How the values were obtained:
Assay in all cases: relative viability (nuclei count vs DMSO), 5 days (fraction); higher = more cells survive
[1] = compound: C1CC(C2=C(C1)C3=C(N2)C=CC(=C3)Cl)C(=O)N [Selisistat] + CC(=O)Nc1cccc(-n2c(=O)n(C3CC3)c(=O)c3c(Nc4ccc(I)cc4F)n(C)c(=O)c(C)c32)c1 [Trametinib] (partner 0.02 µM)
Summary of the method: (§1)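 One day after seeding in 1536-well plates, lung cancer cell lines were dosed by pin tool. Dosing was either single-drug or a fixed anchor-drug dose plus five library-drug doses (not always all listed) in √10 steps. After 5 days, nuclei were stained in one fix-and-stain step and counted on 4× images, and relative viability is the nuclei count of treated wells over that of vehicle wells, given as the median of duplicate plates.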

[2] = compound: C1CC(C2=C(C1)C3=C(N2)C=CC(=C3)Cl)C(=O)N [Selisistat] + C[C@]1(O)C[C@@H](c2nc(-c3ccc4ccc(-c5ccccc5)nc4c3)c3c(N)nccn32)C1 [Linsitinib] (partner 1 µM)
Summary of the method: as §1

[3] = compound: C1CC(C2=C(C1)C3=C(N2)C=CC(=C3)Cl)C(=O)N [Selisistat] + CC(=O)c1c(C)c2cnc(Nc3ccc(N4CCNCC4)cn3)nc2n(C2CCCC2)c1=O [Palbociclib] (partner 0.5 µM)
Summary of the method: as §1

[4] = compound: C1CC(C2=C(C1)C3=C(N2)C=CC(=C3)Cl)C(=O)N [Selisistat] + CC1(C)CCC(c2ccc(Cl)cc2)=C(CN2CCN(c3ccc(C(=O)NS(=O)(=O)c4ccc(N[C@H](CCN5CCOCC5)CSc5ccccc5)c(S(=O)(=O)C(F)(F)F)c4)cc3)CC2)C1 [Navitoclax] (partner 0.5 µM)
Summary of the method: as §1

Cell Line	relative viability ([1]; first compound 0.4 µM)	relative viability ([1]; first compound 1.265 µM)	relative viability ([1]; first compound 4 µM)	relative viability ([1]; first compound 12.65 µM)	relative viability ([1]; first compound 40 µM)	relative viability ([2]; first compound 0.4 µM)	relative viability ([2]; first compound 1.265 µM)	relative viability ([2]; first compound 4 µM)	relative viability ([2]; first compound 12.65 µM)	relative viability ([2]; first compound 40 µM)	relative viability ([3]; first compound 0.4 µM)	relative viability ([3]; first compound 1.265 µM)	relative viability ([3]; first compound 4 µM)	relative viability ([3]; first compound 12.65 µM)	relative viability ([3]; first compound 40 µM)	relative viability ([4]; first compound 0.4 µM)	relative viability ([4]; first compound 1.265 µM)	relative viability ([4]; first compound 4 µM)	relative viability ([4]; first compound 12.65 µM)	relative viability ([4]; first compound 40 µM)
201T	0.761	0.655	0.71	0.691	0.749	1.08	1.02	0.998	0.967	1.06	0.369	0.338	0.32	0.333	0.365	1.21	1.17	1.16	1.25	1.25
A549	–	–	–	–	–	0.664	0.587	0.484	0.649	0.622	–	–	–	–	–	1.27	1.14	1.34	1.28	1.28
A-427	0.842	0.801	–	0.776	0.775	1.21	1.05	1.1	1.15	1.15	0.57	0.485	–	0.57	0.554	0.98	0.986	1.04	0.878	1.11
ABC-1	–	–	–	–	–	0.649	0.652	0.788	0.726	0.721	0.713	0.695	–	0.563	0.735	–	–	–	–	–
BEN	1.05	0.882	0.896	1.03	0.957	0.971	0.986	0.812	0.762	0.827	0.467	0.502	0.486	0.448	0.459	0.0717	0.0697	0.0619	0.0731	0.0771
CAL-12T	0.375	0.365	0.35	0.311	0.341	0.85	0.799	0.82	0.784	0.862	0.534	0.41	0.122	0.448	0.409	1.19	1.04	1.16	1.22	1.14
COR-L23	0.66	0.597	0.656	0.614	0.645	1.04	0.872	1.04	0.899	0.876	0.372	0.296	0.332	0.305	0.296	0.994	1.09	1.07	0.939	0.928
COR-L 105	0.45	0.421	0.421	0.442	0.512	0.755	0.918	0.933	1.02	0.914	0.427	0.378	0.397	0.419	0.437	0.635	0.763	0.671	0.815	0.823
Calu-6	–	–	–	–	–	0.932	0.964	0.981	0.975	0.939	–	–	–	–	–	0.832	0.779	0.84	0.82	0.789
ChaGo-K-1	0.895	0.886	0.881	0.895	0.888	–	–	–	–	–	0.91	0.918	0.832	0.816	0.889	0.959	1.1	–	0.881	0.901
EBC-1	–	–	–	–	–	0.92	0.899	0.892	0.8	0.844	–	–	–	–	–	0.526	0.416	0.433	0.448	0.459
EKVX	0.383	0.392	0.324	0.379	0.48	1.14	0.982	0.983	0.914	0.939	0.364	0.351	0.329	0.376	0.353	0.905	0.918	0.745	0.874	0.945
EMC-BAC-2	0.907	0.927	0.96	0.885	0.816	0.87	0.787	0.777	0.753	0.813	0.523	0.525	0.586	0.282	0.319	1.13	1.09	1.07	1.15	1.2
EPLC-272H	0.294	0.287	–	0.284	0.33	1.24	1.2	–	1	1.2	0.343	0.323	–	0.334	0.368	1.07	1.16	–	1.23	1.25
H3255	0.664	0.526	0.584	0.636	0.637	0.946	0.843	0.973	0.827	0.938	0.348	0.295	0.33	0.303	0.32	0.512	0.643	0.293	0.438	0.511
HARA	0.659	0.962	–	0.509	0.377	0.938	0.917	0.854	0.844	0.983	0.295	0.242	0.241	0.275	0.251	1.17	1.08	1.17	1.13	1.22
HCC-15	0.453	0.433	–	0.37	0.468	1.03	0.918	–	0.902	0.696	0.755	0.854	0.586	0.748	0.885	0.778	0.737	–	0.756	0.742
HCC-44	1.1	1.22	1.13	1.07	1.05	0.707	0.698	0.669	0.662	0.753	1.05	0.975	1.07	0.994	1.06	1.03	0.955	0.911	0.997	1.02

Cell Line	relative viability ([1]; first compound 0.4 µM)	relative viability ([1]; first compound 1.265 µM)	relative viability ([1]; first compound 4 µM)	relative viability ([1]; first compound 12.65 µM)	relative viability ([1]; first compound 40 µM)	relative viability ([2]; first compound 0.4 µM)	relative viability ([2]; first compound 1.265 µM)	relative viability ([2]; first compound 4 µM)	relative viability ([2]; first compound 12.65 µM)	relative viability ([2]; first compound 40 µM)	relative viability ([3]; first compound 0.4 µM)	relative viability ([3]; first compound 1.265 µM)	relative viability ([3]; first compound 4 µM)	relative viability ([3]; first compound 12.65 µM)	relative viability ([3]; first compound 40 µM)	relative viability ([4]; first compound 0.4 µM)	relative viability ([4]; first compound 1.265 µM)	relative viability ([4]; first compound 4 µM)	relative viability ([4]; first compound 12.65 µM)	relative viability ([4]; first compound 40 µM)
HCC-78	0.783	0.779	0.696	0.744	0.732	0.571	0.483	0.553	0.537	0.437	0.488	0.461	0.435	0.476	0.473	0.961	0.836	0.765	0.705	0.714
HCC-366	0.435	0.302	0.329	0.301	0.285	0.808	0.582	0.336	0.577	0.618	0.414	0.447	0.37	0.355	0.377	1.15	0.965	0.89	0.97	1.08
IA-LM	–	–	–	–	–	0.632	0.581	0.436	0.4	0.694	–	–	–	–	–	0.787	0.82	0.946	0.818	0.835
LCLC-103H	0.682	0.731	0.75	0.651	0.711	1.13	1.15	1.07	1.03	1.01	0.3	0.509	0.452	0.435	0.558	–	–	–	–	–
NCI-H358	0.146	0.16	0.122	0.129	0.122	0.722	0.726	–	0.687	0.68	0.137	0.128	0.128	0.192	0.149	–	–	–	–	–
NCI-H522	0.651	0.653	0.745	0.751	0.589	–	–	–	–	–	1	0.969	0.714	0.921	1.02	–	–	–	–	–
NCI-H596	0.864	0.843	0.831	0.733	0.813	1	1.11	1.03	1.23	0.999	–	–	–	–	–	0.952	0.959	0.944	0.904	0.895
NCI-H650	0.978	1.01	0.967	0.909	1.01	0.824	–	0.987	0.72	1.01	0.379	0.319	0.443	0.387	0.339	–	–	–	–	–
NCI-H661	0.522	0.541	0.442	0.502	0.45	0.596	0.609	0.52	0.488	0.588	0.421	0.392	0.374	0.414	0.374	–	–	–	–	–
NCI-H1299	–	–	–	–	–	1.06	1.01	0.996	0.974	0.991	–	–	–	–	–	1.1	1.08	1.01	1.05	1.04
NCI-H1563	–	–	–	–	–	1.08	1.15	1.17	1.07	0.83	–	–	–	–	–	–	–	–	–	–
NCI-H1648	0.448	0.399	–	0.453	0.431	–	–	–	–	–	0.281	0.268	–	0.296	0.299	–	–	–	–	–
NCI-H1650	0.564	0.572	0.531	0.577	0.465	–	–	–	–	–	0.362	0.301	0.357	0.364	0.334	1.16	1.41	1.14	1.31	1.12
NCI-H1703	–	–	–	–	–	0.316	0.703	0.627	0.724	0.932	–	–	–	–	–	1.24	1.15	1.25	1.42	1.27
NCI-H2170	1.07	0.939	0.85	0.919	0.973	–	–	–	–	–	0.436	0.396	0.413	0.458	0.475	0.601	0.623	0.618	0.708	0.713
NCI-H2342	0.931	0.826	0.801	0.736	0.988	–	–	–	–	–	0.554	0.753	0.46	0.538	0.611	–	–	–	–	–
SW 900	1.03	0.87	0.78	0.995	0.78	–	–	–	–	–	0.549	0.517	0.502	0.553	0.511	–	–	–	–	–
